Literature values in patent US8324425B2, “Method for producing bicyclic γ-amino acid derivative” (Daiichi Sankyo Company, Limited, priority 2009, dated 2012).

Experiments:
[1] = according to patients' own evaluation; Non Patent Literature 4
[2] = according to patients' own evaluation; Non Patent Literature 3

SMILES | efficacy in the treatment of painful diabetic neuropathy [1] | efficacy in the treatment of postherpetic neuralgia [2]
CC(C)C[C@H](CN)CC(=O)O [pregabalin] | approximately 50% | 
NCC1(CC(=O)O)CCCCC1 [gabapentine] |  | approximately 60%
